The values below come from PubChem BioAssay (NCI).

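Tested at 5 concentrations; 48 h exposure; 96-well plates; endpoints linearly interpolated, else capped at highest concentration. At the TGI there is no net growth.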

Some test systems named below: ACHN renal; COLO 205 colon; IGROV1 ovarian; K-562 leukemia; LOX IMVI melanoma; MDA-MB-435; MDA-N; NCI-H460 lung; OVCAR-3 ovarian; SW-620 colon.
What all share (assay): inhibition of tumour cell growth, NCI panel, 48 h

As to `O=C1CSC(c2ccccc2[N+](=O)[O-])N1c1ccc(-c2ccc(-n3c(-c4ccccc4)nc4ccccc4c3=O)cc2)cc1` (stereo not given), the TGI in the assay on ACHN renal, in the assay with COLO 205 colon, in the assay on IGROV1 ovarian, with K-562 leukemia, in the assay with LOX IMVI melanoma and in the assay on MDA-MB-435 was > 100 µM in each case. The TGI with MDA-N, with NCI-H460 lung, in the assay on OVCAR-3 ovarian and in the assay on SW-620 colon was > 100 µM in each case.

Consider `COC(=O)c1cc(C(=CCC[C@H]2CC[C@@]3(C)C(CCC4C3CC[C@@]3(C)C4CC[C@@H]3C(C)CCCC(C)C)C2)c2cc(Cl)c(O)c(C(=O)OC)c2)cc(Cl)c1O` (stereo not given in full), for which the TGI with ACHN renal, with COLO 205 colon, in the assay on IGROV1 ovarian, with K-562 leukemia, in the assay with LOX IMVI melanoma and in the assay on MDA-MB-435 was > 10 µM throughout. Also, the TGI with MDA-N, in the assay on NCI-H460 lung, in the assay with OVCAR-3 ovarian and with SW-620 colon was > 10 µM in each case.

Take `CC(=O)Nc1c(C)cc2c(nc3n2CCC3OC(C)=O)c1[N+](=O)[O-]` (stereo not given): the TGI in the assay with ACHN renal, in the assay on COLO 205 colon, with IGROV1 ovarian, in the assay on K-562 leukemia, with LOX IMVI melanoma and with MDA-MB-435 was > 100 µM in each case. The TGI in the assay on MDA-N, with NCI-H460 lung, with OVCAR-3 ovarian and in the assay on SW-620 colon was > 100 µM in each case.

Take `CC(C)=CCC/C(C)=C/CC/C(C)=C/CC/C(C)=C/CC/C(C)=C/CC/C(C)=C/CC/C(C)=C/CC/C(C)=C/CC/C(C)=C/CO`: the TGI with ACHN renal, with COLO 205 colon, in the assay on IGROV1 ovarian, in the assay with K-562 leukemia, in the assay on LOX IMVI melanoma and in the assay on MDA-MB-435 was > 100 µM in each case. Moreover, the TGI with MDA-N, in the assay with NCI-H460 lung, with OVCAR-3 ovarian and in the assay with SW-620 colon was > 100 µM in each case.

Turning to `C=C(CCC/C(C)=C/C=C/[C@@H](C)CCCc1ccoc1)C[C@@H]1OC(=O)[C@H](C)[C@@H]1O`, the TGI with ACHN renal is 16.2 µM; in the assay with COLO 205 colon it was 20.5 µM; in the assay on IGROV1 ovarian, 21.7 µM; in the assay with K-562 leukemia, > 50 µM; in the assay with LOX IMVI melanoma, 21.8 µM; in the assay with MDA-MB-435 it was 16.3 µM. For the same molecule, the TGI in the assay on MDA-N was found to be 21.5 µM; in the assay with NCI-H460 lung, 29.8 µM; in the assay on OVCAR-3 ovarian, 16 µM; in the assay on SW-620 colon, 23.7 µM.

`CC(C)=CC(Cc1ccccc1)S(=O)(=O)c1nc2ccccc2s1` (stereo not given): the TGI with ACHN renal was 42.9 µM; in the assay with COLO 205 colon it was 34.9 µM; with IGROV1 ovarian, 62.7 µM; in the assay with K-562 leukemia, 33.4 µM; in the assay on LOX IMVI melanoma, 11.9 µM; in the assay with MDA-MB-435 it was 32.4 µM. The TGI in the assay with MDA-N came out at 29.7 µM; with NCI-H460 lung it was 50.1 µM; in the assay on OVCAR-3 ovarian it was 29.2 µM; with SW-620 colon it was 37.2 µM.

Consider `CC1(C)Cc2nc3c(cc2C(=O)C1C=N/C(C#N)=C(\N)C#N)C(=O)C(C=N/C(C#N)=C(\N)C#N)C(C)(C)C3` (stereo not given), for which the TGI in the assay with ACHN renal is 5.87 µM; in the assay on COLO 205 colon, 7.04 µM; in the assay with IGROV1 ovarian, 3.56 µM; with K-562 leukemia, > 100 µM; in the assay with LOX IMVI melanoma, 5.7 µM; in the assay with MDA-MB-435, 3.48 µM. Moreover, the TGI with MDA-N is 11.8 µM; in the assay with NCI-H460 lung, 8.21 µM; in the assay with OVCAR-3 ovarian, 11 µM; in the assay with SW-620 colon it was > 20.5 µM.

Turning to `O=C(O)CCSCc1ccccc1`, the TGI in the assay with ACHN renal, with COLO 205 colon, in the assay on IGROV1 ovarian, in the assay on K-562 leukemia, with LOX IMVI melanoma and in the assay with MDA-MB-435 was > 100 µM in each case. The TGI with MDA-N, with NCI-H460 lung, with OVCAR-3 ovarian and in the assay on SW-620 colon was > 100 µM each time.

`COc1cc(NCCC2CCCCN2)c2ncccc2c1` (stereo not given): the TGI in the assay with ACHN renal was > 100 µM; with COLO 205 colon, 28.6 µM; with IGROV1 ovarian, > 100 µM; in the assay with K-562 leukemia, > 66.3 µM; with LOX IMVI melanoma, > 100 µM; in the assay with MDA-MB-435 it was > 67.2 µM. For the same molecule, the TGI was > 100 µM in the assay with MDA-N, > 100 µM in the assay with NCI-H460 lung, > 62.7 µM in the assay on OVCAR-3 ovarian and > 100 µM in the assay on SW-620 colon.

For the molecule `C/C=C(\C)C(O)C(C)C(O)C/C=C(C)/C=C(\C)C/C(C)=C/C/C=C(\C)C(O)C(C)c1ccc(CCC)c(=O)o1` (stereo not given), the TGI with ACHN renal is 53.2 µM; in the assay on COLO 205 colon, 16.8 µM; with IGROV1 ovarian, 32.8 µM; with K-562 leukemia, > 100 µM; in the assay on LOX IMVI melanoma, 28.3 µM; with MDA-MB-435 it was 22.7 µM. The TGI in the assay with MDA-N amounted to 22.8 µM; with NCI-H460 lung it was 22.7 µM; in the assay with OVCAR-3 ovarian, 27.8 µM; in the assay on SW-620 colon, 28.4 µM.

Take `CC(=O)OCC1OC(n2c(-c3ccccc3)c(C(C)=O)c(-c3cccc4ccccc34)c(C#N)c2=S)C(OC(C)=O)C(OC(C)=O)C1OC(C)=O` (stereo not given): the TGI in the assay with ACHN renal, with COLO 205 colon, in the assay on IGROV1 ovarian, with K-562 leukemia, with LOX IMVI melanoma and in the assay on MDA-MB-435 was > 100 µM each time. Also, the TGI with MDA-N, in the assay on NCI-H460 lung, with OVCAR-3 ovarian and with SW-620 colon was > 100 µM throughout.

Regarding `Cc1cccc2c1c(=O)c1c(O)c3c(cc1n2C)OC(C)(C)C=C3`, the TGI with ACHN renal, in the assay with COLO 205 colon, in the assay on IGROV1 ovarian, with K-562 leukemia, in the assay on LOX IMVI melanoma and with MDA-MB-435 was > 10 µM throughout. Also, the TGI with MDA-N, in the assay with NCI-H460 lung, with OVCAR-3 ovarian and with SW-620 colon was > 10 µM in each case.

Turning to `Cc1ccc(O)c(C2=CC(c3cccc(Cl)c3)SC(N)=N2)c1` (stereo not given), the TGI in the assay on ACHN renal was 54.4 µM; in the assay with COLO 205 colon, 39.8 µM; in the assay on IGROV1 ovarian it was 46.5 µM; with K-562 leukemia, 55.5 µM; in the assay on LOX IMVI melanoma, 34.7 µM; in the assay on MDA-MB-435, 37.1 µM. Besides, the TGI in the assay on MDA-N was 39.7 µM; with NCI-H460 lung it was 64 µM; in the assay with OVCAR-3 ovarian, 90.1 µM; in the assay on SW-620 colon it was 65.9 µM.
